This is an account of results in US20050197343A1, “Utilization of heteroarene carboxamide as dopamine-d3 ligands for the treatment of cns diseases” (priority 2002, published 2005).

As usually defined, the Ki is the equilibrium dissociation constant of an inhibitor or competing ligand from its target.

The target of one assay is α1 receptors. Description: competitive experiment with the α1 selective radio ligand [3H]Prazosin. The note with it: read-out: Ki values α1 (footnote d); pα1; competitive experiment with [3H]Prazosin.
A further assay has as its target T1, human D4.4 receptor (Homo sapiens, UniProt P21917).
T1 construct: expressed in transfected cells; host or cells: CHO cells (membrane homogenates)
T1 sequence (P21917 1-419): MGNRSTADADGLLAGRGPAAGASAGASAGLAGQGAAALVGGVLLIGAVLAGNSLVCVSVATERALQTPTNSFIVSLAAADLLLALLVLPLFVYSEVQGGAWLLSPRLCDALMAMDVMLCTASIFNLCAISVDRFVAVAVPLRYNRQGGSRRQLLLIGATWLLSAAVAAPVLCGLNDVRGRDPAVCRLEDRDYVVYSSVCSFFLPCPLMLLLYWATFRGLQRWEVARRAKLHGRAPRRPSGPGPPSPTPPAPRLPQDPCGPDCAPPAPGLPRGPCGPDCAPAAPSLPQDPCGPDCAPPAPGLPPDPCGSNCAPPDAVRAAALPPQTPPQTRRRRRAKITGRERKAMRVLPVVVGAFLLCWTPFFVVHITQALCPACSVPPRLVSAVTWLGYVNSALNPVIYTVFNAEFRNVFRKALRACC
Description: radio ligand binding assay, CHO cell membrane homogenates, [3H]Spiperon, D4.4. The note with it: for Ki: hD4.4, average of 2-9 experiments in triplicate. As to the method: (§1) The biological activities of the compounds of the invention were determined in radio ligand binding assays.

Assay [1] has as its target adrenergic receptor subtype α1. Description: radio ligand binding, pig cortex membranes, highly affine binding site on labelling with [3H]Ketanserin. The following applies: read-out: Ki values α1 (footnote c); pα1; derived from the highly affine binding site on labelling with [3H]Ketanserin.
A further assay deals with D3 receptor (Homo sapiens, UniProt P35462). Description: radio ligand binding assay, CHO cell membrane homogenates, [3H]Spiperon, D3. Also noted: expressed in transfected cells; host or cells: CHO cells (membrane homogenates). Here is the method:
as §1

Another assay addresses T2, human D2long receptor (Homo sapiens, UniProt P14416).
T2 construct: expressed in transfected cells; host or cells: CHO cells (membrane homogenates)
Description: radio ligand binding assay, CHO cell membrane homogenates, [3H]Spiperon, D2long. The note with it: hD2long; average of 2-9 experiments in triplicate. As to the method: as §1

The target in a further assay is T3, human D2short receptor (Homo sapiens, UniProt P14416).
T3 construct: expressed in transfected cells; host or cells: CHO cells (membrane homogenates)
T3 sequence (P14416 1-414 isoform P14416-2): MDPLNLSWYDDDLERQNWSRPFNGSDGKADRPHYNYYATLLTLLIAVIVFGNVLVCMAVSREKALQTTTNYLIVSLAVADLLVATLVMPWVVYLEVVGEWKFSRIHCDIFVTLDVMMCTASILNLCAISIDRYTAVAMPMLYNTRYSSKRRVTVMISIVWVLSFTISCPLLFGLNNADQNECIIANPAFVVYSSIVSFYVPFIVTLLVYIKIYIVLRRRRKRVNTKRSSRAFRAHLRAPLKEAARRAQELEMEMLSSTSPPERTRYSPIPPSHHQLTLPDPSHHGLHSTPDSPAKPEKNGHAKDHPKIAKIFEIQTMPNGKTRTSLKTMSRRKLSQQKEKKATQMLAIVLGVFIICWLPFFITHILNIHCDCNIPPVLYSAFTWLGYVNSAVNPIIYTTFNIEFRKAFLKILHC
Description: radio ligand binding assay, CHO cell membrane homogenates, [3H]Spiperon, D2short. The note with it: hD2short; average of 2-9 experiments in triplicate. As to the method:
as §1

The next assay concerns the target T4, serotonin receptor 5-HT2 (Sus scrofa, UniProt P50129).
T4 construct: cortex membrane preparations of a pig; from tissue; host or cells: pig cortex
Description: radio ligand binding, pig cortex membrane preparations, [3H]Ketanserin with 10 μM Prazosin. The following applies: p5-HT2; simultaneous incubation with 10 μM of Prazosin.

For assay [2], the target named is T5, serotonin receptor 5-HT1A (Sus scrofa, UniProt A0A4X1UTF5).
T5 sequence (A0A4X1UTF5 1-422): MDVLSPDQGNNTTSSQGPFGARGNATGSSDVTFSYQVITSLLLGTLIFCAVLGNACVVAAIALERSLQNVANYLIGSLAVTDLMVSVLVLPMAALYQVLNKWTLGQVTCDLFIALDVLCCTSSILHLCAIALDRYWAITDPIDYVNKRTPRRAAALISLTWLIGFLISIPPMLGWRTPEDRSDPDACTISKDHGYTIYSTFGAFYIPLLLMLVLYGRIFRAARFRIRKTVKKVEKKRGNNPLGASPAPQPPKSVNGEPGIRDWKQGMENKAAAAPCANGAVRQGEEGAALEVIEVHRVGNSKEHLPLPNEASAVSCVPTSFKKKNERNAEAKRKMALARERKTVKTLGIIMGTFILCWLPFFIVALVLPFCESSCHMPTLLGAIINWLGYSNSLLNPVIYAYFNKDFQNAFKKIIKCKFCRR
Description: radio ligand binding, pig cortex membrane preparations, [3H]8-OH-DPAT.

[3] abbreviates: hD3, average of 2-9 experiments in triplicate, read-out: Ki-values D3.
The mark [4] stands for this setting: read-out: Ki values 5-HT1A, p5-HT1A, [3H]8-OH-DPAT, average of 2 to 6 experiments.

Read-outs that look alike come from different tables or passages of the source.

T4 sequence (P50129 whole entry): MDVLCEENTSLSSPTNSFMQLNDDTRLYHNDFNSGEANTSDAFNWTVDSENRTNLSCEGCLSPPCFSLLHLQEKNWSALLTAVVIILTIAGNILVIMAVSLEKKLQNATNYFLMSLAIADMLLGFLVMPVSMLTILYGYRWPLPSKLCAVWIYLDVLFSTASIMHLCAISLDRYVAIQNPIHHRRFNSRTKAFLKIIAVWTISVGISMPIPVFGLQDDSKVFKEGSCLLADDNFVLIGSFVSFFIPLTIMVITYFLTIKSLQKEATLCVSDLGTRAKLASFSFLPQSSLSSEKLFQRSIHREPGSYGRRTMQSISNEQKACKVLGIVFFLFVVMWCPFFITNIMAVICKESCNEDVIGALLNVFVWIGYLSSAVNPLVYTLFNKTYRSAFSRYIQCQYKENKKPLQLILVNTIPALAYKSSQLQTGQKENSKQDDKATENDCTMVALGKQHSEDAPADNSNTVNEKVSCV
Sequence of D3 receptor (P35462 whole entry): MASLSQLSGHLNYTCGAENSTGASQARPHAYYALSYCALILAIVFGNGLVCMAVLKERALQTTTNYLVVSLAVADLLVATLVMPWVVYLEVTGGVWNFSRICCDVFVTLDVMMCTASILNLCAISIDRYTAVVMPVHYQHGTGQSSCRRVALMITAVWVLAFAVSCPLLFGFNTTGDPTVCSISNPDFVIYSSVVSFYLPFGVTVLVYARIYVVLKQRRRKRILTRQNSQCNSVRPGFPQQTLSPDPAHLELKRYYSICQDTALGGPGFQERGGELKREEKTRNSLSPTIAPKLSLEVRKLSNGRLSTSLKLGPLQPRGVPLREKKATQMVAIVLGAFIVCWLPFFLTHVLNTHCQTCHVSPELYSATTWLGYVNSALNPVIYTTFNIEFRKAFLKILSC
T2 sequence (P14416 whole entry): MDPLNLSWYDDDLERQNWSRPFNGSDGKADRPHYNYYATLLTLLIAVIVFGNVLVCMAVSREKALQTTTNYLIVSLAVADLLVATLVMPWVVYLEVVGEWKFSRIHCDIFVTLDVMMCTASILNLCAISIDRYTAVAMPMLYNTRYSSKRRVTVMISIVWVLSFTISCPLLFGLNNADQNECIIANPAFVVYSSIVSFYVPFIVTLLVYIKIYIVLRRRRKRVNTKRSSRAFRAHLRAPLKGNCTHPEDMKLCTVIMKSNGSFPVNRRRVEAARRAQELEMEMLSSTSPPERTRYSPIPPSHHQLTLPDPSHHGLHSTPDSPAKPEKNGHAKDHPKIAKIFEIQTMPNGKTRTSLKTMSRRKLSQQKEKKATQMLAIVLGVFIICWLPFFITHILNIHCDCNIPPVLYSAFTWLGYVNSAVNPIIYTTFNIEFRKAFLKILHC

In the case of `O=C(NCCCCN1CCN(c2cccc(Cl)c2Cl)CC1)c1cc2ccccc2s1` [Example 2, N-4-(4-(2,3-dichlorophenyl)piperazine-1-yl)butyl-2-benzo[b]thiophenylcarbamide], the Ki on α1 receptors is 370 nM.
Take `COc1ccccc1N1CCN(CCCCNC(=O)c2cc3ccccc3o2)CC1` [Example 3, N-4-(4-(2-methoxyphenyl)piperazine-1-yl)butyl-2-benzo[b]furanylcarbarnide]: the Ki on human D4.4 receptor is 30 nM; at α1 receptors, 3.3 nM; in assay [1] it was 14 nM.
Turning to `O=C(NCCCCN1CCN(c2cccc(Cl)c2Cl)CC1)c1cc2ccccc2o1` [Example 4, N-4-(4-(2,3-dichlorophenyl)piperazine-1-yl)butyl-2-benzo[b]furanylcarbamide], the inhibition constant (Ki) at α1 receptors was found to be 160 nM; at D3 receptor (setting [3]), 1.2 nM.
For `COc1ccccc1N1CCN(CCCCNC(=O)c2cc3cc(C#N)ccc3o2)CC1` [Example 7, N-4-(4-(2-methoxyphenyl)piperazine-1-yl)butyl-5-cyano-2-benzo[b]furanylcarbamide], the inhibition constant Ki at human D2long receptor was 130 nM; at human D2short receptor, 89 nM; at human D4.4 receptor, 57 nM; on serotonin receptor 5-HT2, 390 nM; in assay [2] it was 37 nM; on α1 receptors, 11 nM. For the same molecule, the Ki came out at 4.2 nM at D3 receptor (setting [3]) and 8.2 nM in assay [1].
Turning to `COc1ccccc1N1CCN(CCCCNC(=O)c2cc3ccccc3[te]2)CC1` [Example 8, N-4-(4-(2-methoxyphenyl)piperazine-1-yl)butyl-2-benzo[b]tellurophenylcarbamide], the Ki is 420 nM at serotonin receptor 5-HT2, 69 nM in assay [2], 3.5 nM at α1 receptors and 0.72 nM at D3 receptor.
As to `O=C(NCCCCN1CCN(c2cccc(Cl)c2Cl)CC1)c1cc2ccccc2[nH]1` [Example 10, N-4-(4-(2,3-dichlorophenyl)piperazine-1-yl)butyl-2-indolylcarbamide], the Ki in assay [2] is 610 nM; on α1 receptors, 220 nM; on D3 receptor (setting [3]), 0.23 to 0.57 nM. Also, the “D3 affinity (in words)” value at D3 receptor is “subnanomolar affinity”.
For `COc1ccccc1N1CCN(CCCCNC(=O)c2cc3cc(C#N)ccc3[nH]2)CC1` [Example 11, N-4-(4-(2-methoxyphenyl)piperazine-1-yl)butyl-5-cyan-2-indolylcarbamide], the Ki was 440 nM at serotonin receptor 5-HT2; 83 nM in assay [2]; 5.9 nM on α1 receptors; 0.23 to 0.57 nM on D3 receptor (setting [3]); 24 nM in assay [1].
With `COc1ccccc1N1CCN(CCCCNC(=O)c2cc3cc(Br)ccc3[nH]2)CC1` [Example 12, N-4-(4-(2-methoxyphenyl)piperazine-1-yl)butyl-5-bromo-2-indolylcarbamide], the Ki on serotonin receptor 5-HT2 is 280 nM; in assay [2], 440 nM; at α1 receptors it was 6.4 nM; at D3 receptor (setting [3]), 0.23 to 0.57 nM.
`COc1ccccc1N1CCN(CCCCNC(=O)c2cc3ccc(C#N)cc3[nH]2)CC1` [Example 13, N-4-(4-(2-methoxyphenyl)piperazine-1-yl)butyl-6-cyan-2-indolylcarbamide]: the Ki at serotonin receptor 5-HT2 was 220 nM; in assay [2], 47 nM; on α1 receptors it was 4.3 nM; at D3 receptor (setting [3]) it was 0.23 to 0.57 nM.
With `O=C(NCCCCN1CCN(c2cccc(Cl)c2Cl)CC1)c1cc2cc(Br)ccc2[nH]1` [Example 14, N-4-(4-(2,3-dichlorophenyl)piperazine-1-yl)butyl-5-brom-2-indolylcarbamide], the Ki is 690 nM on serotonin receptor 5-HT2, 1600 nM in assay [2] (setting [4]) and 500 nM on α1 receptors.
As to `N#Cc1ccc2cc(C(=O)NCCCCN3CCN(c4cccc(Cl)c4Cl)CC3)[nH]c2c1` [Example 15, N-4-(4-(2,3-dichlorophenyl)piperazine-1-yl)butyl-6-cyano-2-indolylcarbamide], the Ki at serotonin receptor 5-HT2 was found to be 320 nM; in assay [2] (setting [4]), 390 nM; on α1 receptors, 2000 nM.
As to `COc1ccccc1N1CCN(CCCCNC(=O)c2cc3cc(C#N)ccc3s2)CC1` [Example 18, N-4-(4-(2-methoxyphenyl)piperazine-1-yl)butyl-5-cyano-2-benzo[b]thiophenylcarbamide], the Ki at serotonin receptor 5-HT2 amounted to 580 nM; in assay [2], 54 nM; at α1 receptors it was 2.9 nM.
As for `N#Cc1ccc2sc(C(=O)NCCCCN3CCN(c4cccc(Cl)c4Cl)CC3)cc2c1` [Example 19, N-4-(4-(2,3-dichlorophenyl)piperazine-1-yl)butyl-5-cyan-2-benzo[b]thiophenylcarbamide], the Ki at serotonin receptor 5-HT2 is 280 nM; in assay [2] (setting [4]), 190 nM; on α1 receptors, 230 nM.
Consider `COc1ccccc1N1CCN(CCCCNC(=O)c2cc3ccc(C#N)cc3s2)CC1` [Example 20, N-4-(4-(2-methoxyphenyl)piperazine-1-yl)butyl-6-cyano-2-benzo[b]thiophenylcarbamide], for which the Ki at serotonin receptor 5-HT2 is 660 nM; in assay [2], 71 nM; on α1 receptors, 8.3 nM; on D3 receptor (setting [3]), 0.23 to 0.57 nM.
Regarding `N#Cc1ccc2cc(C(=O)NCCCCN3CCN(c4cccc(Cl)c4Cl)CC3)sc2c1` [Example 21, N-4-(4-(2,3-dichlorophenyl)piperazine-1-yl)butyl-6-cyano-2-benzo[b]thiophenylcarbamide], the Ki on serotonin receptor 5-HT2 was 290 nM; in assay [2], 110 nM; at α1 receptors, 45 nM; at D3 receptor (setting [3]) it was 0.23 to 0.57 nM.
Turning to `COc1ccccc1N1CCN(CCCCNC(=O)c2cc3cc(Br)ccc3s2)CC1` [Example 22, N-4-(4-(2-methoxyphenyl)piperazine-1-yl)butyl-5-brom-2-benzo[b]thiophenylcarbamide], the Ki on serotonin receptor 5-HT2 was determined as 760 nM; in assay [2] (setting [4]), 180 nM; on α1 receptors, 2.5 nM.
Regarding `O=C(NCCCCN1CCN(c2cccc(Cl)c2Cl)CC1)c1cc2cc(Br)ccc2s1` [Example 23, N-4-(4-(2,3-dichlorophenyl)piperazine-1-yl)butyl-5-brom-2-benzo[b]thiophenylcarbamide], the Ki turned out to be 14000 nM on serotonin receptor 5-HT2, 430 nM in assay [2] (setting [4]) and 320 nM at α1 receptors.
Regarding `COc1ccccc1N1CCN(CCCCNC(=O)c2cc3ccccc3[nH]2)CC1` [Example 24, N-4-(4-(2-methoxyphenyl)piperazine-1-yl)butyl-2-indolylcarbamide], the Ki is 420 nM on serotonin receptor 5-HT2, 32 nM in assay [2], 7.3 nM on α1 receptors and 11 nM in assay [1].
In the case of `N#Cc1ccc2[nH]c(C(=O)NCCCCN3CCN(c4cccc(Cl)c4Cl)CC3)cc2c1` [Example 25, N-4-(4-(2,3-dichlorophenyl)piperazine-1-yl)butyl-5-cyano-2-indolylcarbamide], the Ki at serotonin receptor 5-HT2 was 220 nM; in assay [2] (setting [4]), 190 nM; at α1 receptors, 220 nM.
For “N-4-(4-(2, 3-dichlorophenyl)piperazine-1 -yl)butyl-2-ferrocenylcarbamide [Example 17]”, at human D4.4 receptor, the “D4 affinity (in words)” value was “high D4 affinity”. Besides, the Ki was 0.63 nM at human D4.4 receptor; 250 nM on serotonin receptor 5-HT2; 27 nM in assay [2] (setting [4]); 73 nM at α1 receptors; 0.47 nM at D3 receptor (setting [3]).
Consider “N-4-(4-(2-methoxyphenyl)piperazine-1 -yl)butyl-2-ferrocenylcarbamide [Example 16]”, for which the “D4 affinity (in words)” value at human D4.4 receptor is given as “high D4 affinity”. Besides, the Ki on serotonin receptor 5-HT2 stood at 500 nM; in assay [2] (setting [4]), 0.6 nM; at α1 receptors it was 30 nM.
